Data published in ChEMBL document CHEMBL1201862, “PubChem BioAssay data set” (2004).
Calls of active or inactive are those of the source.

Experiments:
[1] = molecular target: T1, Sentrin-specific protease 6 (Homo sapiens, UniProt Q9GZR1); format: functional;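 further: Luminescence-based dose-response confirmatory assay of SENP6 inhibition, following up an ultra-high-throughput screen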
T1 sequence (Q9GZR1 whole entry): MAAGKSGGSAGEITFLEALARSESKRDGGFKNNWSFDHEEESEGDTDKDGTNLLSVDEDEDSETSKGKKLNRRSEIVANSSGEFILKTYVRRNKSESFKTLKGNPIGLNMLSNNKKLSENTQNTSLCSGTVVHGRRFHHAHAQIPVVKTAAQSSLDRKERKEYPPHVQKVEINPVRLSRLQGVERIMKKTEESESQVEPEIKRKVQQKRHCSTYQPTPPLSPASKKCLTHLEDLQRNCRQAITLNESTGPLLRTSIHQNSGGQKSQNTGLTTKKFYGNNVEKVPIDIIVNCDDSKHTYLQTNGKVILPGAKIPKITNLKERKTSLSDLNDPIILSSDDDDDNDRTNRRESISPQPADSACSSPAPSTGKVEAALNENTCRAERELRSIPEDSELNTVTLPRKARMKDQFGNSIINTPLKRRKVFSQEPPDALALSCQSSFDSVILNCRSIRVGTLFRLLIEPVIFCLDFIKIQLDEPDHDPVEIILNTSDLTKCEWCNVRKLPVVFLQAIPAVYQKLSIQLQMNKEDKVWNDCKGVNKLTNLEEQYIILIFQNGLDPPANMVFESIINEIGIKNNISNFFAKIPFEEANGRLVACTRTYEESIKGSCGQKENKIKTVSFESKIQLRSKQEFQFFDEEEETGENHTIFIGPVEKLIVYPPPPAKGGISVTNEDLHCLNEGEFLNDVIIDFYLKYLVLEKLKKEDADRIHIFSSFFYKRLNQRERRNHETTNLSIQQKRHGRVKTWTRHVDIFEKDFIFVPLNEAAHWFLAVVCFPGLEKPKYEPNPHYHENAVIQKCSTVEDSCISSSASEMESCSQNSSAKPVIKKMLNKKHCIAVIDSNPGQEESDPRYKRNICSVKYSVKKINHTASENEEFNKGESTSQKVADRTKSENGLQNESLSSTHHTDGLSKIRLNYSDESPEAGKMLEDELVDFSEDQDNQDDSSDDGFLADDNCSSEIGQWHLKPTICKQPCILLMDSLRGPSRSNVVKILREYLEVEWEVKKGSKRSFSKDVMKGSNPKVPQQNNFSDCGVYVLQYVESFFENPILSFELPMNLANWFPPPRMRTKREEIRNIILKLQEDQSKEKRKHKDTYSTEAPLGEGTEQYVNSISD

Aminopeptidase N = molecular target: T2, Aminopeptidase N (Plasmodium falciparum FcB1/Columbia, UniProt O96935); test: malaria alanyl aminopeptidase activity blockers – biochemical, fluorogenic H-Leu-NHMec substrate, 1536-well (AID 1445); parameters: species or system Plasmodium falciparum 3D7, 3D7
T2 sequence (O96935 whole entry): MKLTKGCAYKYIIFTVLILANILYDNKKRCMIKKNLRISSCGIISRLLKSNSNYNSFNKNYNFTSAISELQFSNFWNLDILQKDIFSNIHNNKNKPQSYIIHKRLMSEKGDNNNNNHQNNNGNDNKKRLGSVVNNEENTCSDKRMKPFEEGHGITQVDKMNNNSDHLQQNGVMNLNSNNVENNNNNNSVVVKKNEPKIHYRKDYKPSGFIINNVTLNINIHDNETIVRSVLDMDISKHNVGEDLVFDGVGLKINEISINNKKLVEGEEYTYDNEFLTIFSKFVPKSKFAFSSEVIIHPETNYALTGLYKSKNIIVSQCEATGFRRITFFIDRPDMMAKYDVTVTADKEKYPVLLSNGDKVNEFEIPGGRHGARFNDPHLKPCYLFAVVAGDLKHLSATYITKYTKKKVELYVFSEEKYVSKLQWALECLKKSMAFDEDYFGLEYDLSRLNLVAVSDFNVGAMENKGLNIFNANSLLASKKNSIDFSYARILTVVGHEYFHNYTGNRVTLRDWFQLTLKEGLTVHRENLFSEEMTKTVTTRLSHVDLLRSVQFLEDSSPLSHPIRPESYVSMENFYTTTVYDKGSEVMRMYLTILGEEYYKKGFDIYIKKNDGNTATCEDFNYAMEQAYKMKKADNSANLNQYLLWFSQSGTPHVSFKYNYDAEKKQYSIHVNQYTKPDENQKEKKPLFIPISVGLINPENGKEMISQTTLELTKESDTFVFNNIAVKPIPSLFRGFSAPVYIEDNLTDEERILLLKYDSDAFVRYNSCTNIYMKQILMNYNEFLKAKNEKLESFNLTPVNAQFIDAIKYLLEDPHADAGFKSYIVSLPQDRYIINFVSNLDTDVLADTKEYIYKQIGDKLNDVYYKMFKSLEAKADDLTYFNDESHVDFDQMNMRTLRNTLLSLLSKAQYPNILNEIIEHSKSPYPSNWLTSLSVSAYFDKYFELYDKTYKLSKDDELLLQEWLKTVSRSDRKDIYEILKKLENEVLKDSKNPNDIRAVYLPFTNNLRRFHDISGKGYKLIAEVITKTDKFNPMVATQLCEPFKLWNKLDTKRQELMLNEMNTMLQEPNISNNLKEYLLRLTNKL

[2] = tested on: Streptococcus sp. 'group A'; test: Streptococcus pyogenes SK(-)GAS viability under kanamycin – luminescence, BacTiterGlo, confirmation, counter-screen for streptokinase expression inhibitor project, dose response (AID 1900); format: functional, organism-based
[3] = alpha-synuclein stem-loop luciferase translation blockers – H4 neuroglioma cells, luminescence, confirmation (AID 1988); format: functional, cell-based
HeLa = test: viability loss in HeLa cells – cell-based, ATP luminescence, cherry-pick samples, cytotoxicity control, dose response (AID 687004); format: functional; details: Homo sapiens
[4] = Counterscreen for AddAB inhibitors: absorbance-based bacterial cell-based high throughput dose response assay for inhibitors of bacterial viability. [Related pubchem assays (depositor defined):AID435030, AID449728, AID449731, AID488942, AID488955, AID488956]; format: functional
[5] = molecular target: Induced myeloid leukemia cell differentiation protein Mcl-1 (Homo sapiens, UniProt Q07820); format: functional
Chain of Induced myeloid leukemia cell differentiation protein Mcl-1 (Q07820 whole entry): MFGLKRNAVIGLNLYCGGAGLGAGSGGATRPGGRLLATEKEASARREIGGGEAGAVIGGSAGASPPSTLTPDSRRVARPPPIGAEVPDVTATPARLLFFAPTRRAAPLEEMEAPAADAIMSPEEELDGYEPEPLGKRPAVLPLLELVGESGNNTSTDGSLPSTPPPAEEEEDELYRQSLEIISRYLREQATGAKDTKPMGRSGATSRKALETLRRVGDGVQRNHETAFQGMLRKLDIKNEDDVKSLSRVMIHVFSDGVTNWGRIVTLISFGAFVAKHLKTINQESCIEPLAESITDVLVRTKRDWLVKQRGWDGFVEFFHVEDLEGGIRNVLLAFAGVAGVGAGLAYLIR

[6] = NIH-3T3 fibroblast cytotoxicity, dose response, cytotoxicity control, cell-based, fluorescence, Alamar Blue, secondary assay (AID 2327); format: functional;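 further: NIH-3T3 mouse fibroblasts cultured with fluconazole at 8 µg/mL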

For `N#Cc1c(NC(=O)c2ccc(Br)o2)n(-c2ccccc2)c2nc3ccccc3nc12`, the IC50 [1] was 2.03 µM (active) and the IC50 (Aminopeptidase N) was 22.9 µM (active).

In the case of `CCCCCCCCCCOC(=O)Cn1c(COc2ccccc2)[n+](C)c2ccccc21`, the EC50 [2] is reported as 6.91 µM (active).

With `CCOC(=O)c1c(-c2ccc(-c3ccccc3)cc2)csc1NC(=O)CNCCN(C)C` the EC50 [3] was 9.16 µM (active) and the AC50 (HeLa) was 8.39 µM (active).

With `COc1cc(-c2nnc(SCc3cc(=O)oc4cc(O)c(O)cc34)o2)cc(OC)c1OC` the IC50 [4] was > 119 µM (inactive), the IC50 [5] was 3.77 µM (active) and the EC50 [6] was > 150 µM (inactive).
